The values below come from patent US20080249024A1, “Peptides facilitating or inhibiting a nterograde transport” (priority 2006, published 2008).

Several values for one entry are separate records, joined by “and”; a condition that tells them apart may be missing. Equal values may be shown once. Read-outs that look alike come from different tables or passages of the source.

The target of experiment [1] is axoplasmic motors (squid giant axon). As to the kind of experiment: cell-based or functional assay.
In a further experiment the test system is giant axon of the squid. As to the kind of experiment: Transport of peptide- or protein-conjugated fluorescent beads injected into the squid giant axon, confocal time-lapse. Type of experiment: cell-based, squid (Loligo pealei). Particulars: for Max. Velocity / Ave. Velocity (instantaneous): beads conjugated to peptide/protein; for Ave. Velocity (instantaneous): number of moves in brackets; for transport behaviour of conjugated beads in the axon (in words): co-injected with other beads into the same axon; for beads leaving the injection site per minute: 10^6 beads injected. As for the experimental part: The giant axon was obtained from squid (Loligo pealei) at the Marine Biological Laboratory, Woods Hole, Mass. (46). Red and green beads, each conjugated to a different peptide (1.5 nl at […]), were loaded into a mercury micropipette either as a mixture or in equal volumes separated by oil (Bearer, E. L., et al., (2000) Proc Natl Acad Sci USA 97, 8146-50; Terasaki, M., S. et al., (1995) Proc Natl Acad Sci U S A 92, 11500-3; Jaffe, L. A. & Terasaki, M. (2004) Methods Cell Biol 74, 219-42, FIG. S1). For each pair of beads the order of injection was alternated such that each color would have an opportunity to recruit motors first.
Carboxylated microspheres (beads, 0.1 μm diameter) with red (580/605 nm) and green (505/515 nm) fluorescence (Invitrogen) were washed through a Low Binding Durapore filter (100 nm cut-off, Millipore). Uncoated beads were diluted in motility buffer (Brady, S. et al., (1982) Science 218, 1129-31) and injected without further treatment.
Custom synthesized peptides (Aves Labs, Inc) were cross-linked to beads via their amino terminus to allow presentation of the carboxy end of the peptide to the cytoplasm, mimicking the physiological orientation of APP. APP constructs (C99 and APP-680) were generated by PCR from human APP-YFP in pShuttleCMV (E.-M. Mandelkow and Jacek Biernat, Max Planck Institute, Hamburg, Germany (Stamer, K., V. et al., (2002) J Cell Biol 156, 1051-63)). APP-YFP is actively transported in neurons (Stamer et al., supra). For C99, the YFP moiety was replaced with mRFP (Campbell, R. E., et al., (2002) Proc Natl Acad Sci USA 99, 7877-82.) and for APP-680 with GFP. Each construct was cross-linked to a bead of similar spectrum as the fluorescent protein, and conjugated beads individually checked for monochromic emission by confocal. […] Accuracy of all sequences was confirmed by sequencing. Recombinant protein was generated in PC12 cells and purified by anti-fluorescent protein affinity columns (Vector Labs). Protein concentrations were determined by Bio-Rad protein assay, and composition and purity determined by SDS-PAGE.
Peptides or recombinant proteins (20 μl of a 2 mg/ml stock) were mixed in 300 μl of 50 mM MES buffer with 10 μl of 2% beads for 15 min. Cross-linker (1-(3-dimethylaminopropyl)-3-ethylcarbodiimide hydrochloride; EDAC, Molecular Probes) was added to a concentration of 10 μg/ml and the solution adjusted to pH 6.5 with 1M NaOH. After 5 hr the reaction was quenched by adding 2M glycine for a final of 0.1M. Conjugation was confirmed by analyzing peptide concentrations before and after by protein assay. Protein:bead ratio was adjusted that equivalent molar amounts of each protein would be conjugated to the beads. Efficiency of conjugation was relatively similar for all peptides. Binding sites on the beads (10^6) were saturated by using 300-1000 fold excess peptide. For C99 and APP-680, protein concentration was adjusted so that 3,000 copies per bead were conjugated to the surface and unoccupied sites blocked with glycine.
Detection parameters were set to ensure that each color was uniquely detected in its appropriate channel by imaging beads on coverslips with the Zeiss LSM 510 Laser Scanning Confocal Microscope. Fluorescent bead movements in the axon were collected with 10× Plan Neofluor 0.3NA air, and 40× Achroplan 0.8NA water correctible objectives. Green and red fluorescence and phase images were collected simultaneously using Zeiss LSM510 multi-tracking.
Rates and trajectories of APP-C beads were measured by stepping through the frames in either the Zeiss LSM browser or NIH ImageJ (http://rsb.info.nih.gov/nih-image/). Only particles moving into and out of a frame were included. Rates of moving particles were statistically analyzed and graphed using Microsoft Excel.

A further experiment has as its system giant squid axon. As to the kind of experiment: JIP peptide-coated bead transport in giant squid axon, confocal microscopy. Format: cell-based. The note with it: injection site imaged at 0 and 55 min. Here is the method:
(§1) JIP peptide was conjugated to 100 nm fluorescent nanospheres (beads) following the protocol described in Example 1. Washed conjugated beads were injected into a freshly dissected giant squid axon and transport imaged by confocal microscopy.

A further experiment concerns the target T1, kinesin 3 (Kif1a) (Rattus norvegicus, UniProt F1M4A4).
T1 construct: tissue Pelco; host or cells: rat brain cortex extract
Briefly: Peptide-bead pull-down from rat brain extract, Western blot for kinesin 3. Format: binding. Particulars: Western blot of beads and supernatants. Here is the method:
(§2) Rat brain extract was prepared from frozen rat brain (Pelco). Rat brain was cut from a frozen block of cortex, weighed, and solubilized in 1% Triton and buffer with sonication (3 times 1 sec bursts with a Branson sonicator set at microtip 4). After clarifying centrifugation at 15,000×g for 15 min, 10 μl of extract in pulldown buffer (Lazarov et al. 2005, supra) was layered over carboxylated beads conjugated to various peptides according to the manufacturer's instructions (Dynal).
On the technique in general: A western blot detects proteins with antibodies after separation by electrophoresis.

Another experiment deals with giant axon. Briefly: Comparison of velocity of JIP and APP peptide beads and carboxylated negative charge beads in the giant axon (Metamorph). Format: cell-based, squid. As for the experimental part:
as §1
Movements of beads conjugated to APP-C, JIP, or unconjugated (negative charge) after injection in the axon were measured using Metamorph imaging software (Molecular Devices). Average velocity of JIP beads was 20% faster than APP or negative charge. As is known, negative charge beads are transported in the axon but less frequently than peptide-conjugated beads.
The different surfaces of the beads influence the average rate of movements. In this experiment, movements between frames were measured only when beads moved into and out of the frame.

Another experiment relates to kinesin 1 heavy chain. As to the kind of experiment: Peptide-bead pull-down from rat brain extract, Western blot for kinesin 1. The note with it: Western blot of beads and supernatants. Type of experiment: binding. Here is the method:
as §2

The target in experiment [2] is axoplasmic motors (squid giant axon). Briefly: cell-based or functional assay. This is another data set of the same source.

T1 sequence (F1M4A4 whole entry): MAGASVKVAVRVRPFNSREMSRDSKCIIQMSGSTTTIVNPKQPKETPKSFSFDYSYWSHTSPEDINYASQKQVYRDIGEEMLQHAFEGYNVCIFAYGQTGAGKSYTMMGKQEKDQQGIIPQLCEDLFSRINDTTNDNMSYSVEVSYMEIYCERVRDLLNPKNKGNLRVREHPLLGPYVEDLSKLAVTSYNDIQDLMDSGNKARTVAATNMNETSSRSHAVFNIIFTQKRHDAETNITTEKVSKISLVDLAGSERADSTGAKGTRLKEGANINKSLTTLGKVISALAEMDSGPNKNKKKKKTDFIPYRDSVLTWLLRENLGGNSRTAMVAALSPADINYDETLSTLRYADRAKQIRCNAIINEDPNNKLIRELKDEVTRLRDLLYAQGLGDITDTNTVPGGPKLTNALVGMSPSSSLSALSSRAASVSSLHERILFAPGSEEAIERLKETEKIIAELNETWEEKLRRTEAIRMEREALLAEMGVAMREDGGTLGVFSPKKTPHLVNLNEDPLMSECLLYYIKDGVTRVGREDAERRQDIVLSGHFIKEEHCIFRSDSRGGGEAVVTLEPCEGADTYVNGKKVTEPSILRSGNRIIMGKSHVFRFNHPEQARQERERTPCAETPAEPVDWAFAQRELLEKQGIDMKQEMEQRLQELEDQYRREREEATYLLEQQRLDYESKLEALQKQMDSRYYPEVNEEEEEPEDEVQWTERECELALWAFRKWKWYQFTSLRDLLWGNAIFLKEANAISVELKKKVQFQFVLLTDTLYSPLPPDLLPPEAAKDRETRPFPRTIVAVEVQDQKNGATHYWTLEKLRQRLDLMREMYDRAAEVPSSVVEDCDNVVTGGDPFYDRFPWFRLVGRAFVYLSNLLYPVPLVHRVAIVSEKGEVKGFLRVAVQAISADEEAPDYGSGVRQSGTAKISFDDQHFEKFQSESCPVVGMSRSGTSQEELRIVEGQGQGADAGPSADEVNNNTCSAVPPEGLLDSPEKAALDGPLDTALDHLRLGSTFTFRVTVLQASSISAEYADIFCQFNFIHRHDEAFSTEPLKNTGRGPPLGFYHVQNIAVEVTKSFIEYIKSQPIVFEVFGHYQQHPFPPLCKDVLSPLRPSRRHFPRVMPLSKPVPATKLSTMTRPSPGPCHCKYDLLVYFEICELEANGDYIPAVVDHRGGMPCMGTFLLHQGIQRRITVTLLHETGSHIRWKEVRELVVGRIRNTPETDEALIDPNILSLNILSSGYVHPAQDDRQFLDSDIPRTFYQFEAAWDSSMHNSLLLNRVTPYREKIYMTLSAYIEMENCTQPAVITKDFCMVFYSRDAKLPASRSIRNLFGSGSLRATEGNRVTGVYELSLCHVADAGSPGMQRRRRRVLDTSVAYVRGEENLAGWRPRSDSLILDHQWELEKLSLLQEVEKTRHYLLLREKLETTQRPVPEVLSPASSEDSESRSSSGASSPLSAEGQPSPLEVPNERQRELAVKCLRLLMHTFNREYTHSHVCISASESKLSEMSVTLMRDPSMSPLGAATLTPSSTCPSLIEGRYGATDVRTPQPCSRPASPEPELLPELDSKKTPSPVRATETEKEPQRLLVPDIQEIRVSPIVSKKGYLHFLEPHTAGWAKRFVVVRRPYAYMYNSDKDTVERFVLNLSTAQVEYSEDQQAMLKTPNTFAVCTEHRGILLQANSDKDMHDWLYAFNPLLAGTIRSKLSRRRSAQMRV

In experiment [1], “C99, a polypeptide containing the C-terminal 99 amino acids of human APP (with mRFP in place of YFP) (from UniProt P05067 597-695)” came in with a percent of beads that move (squid giant axon, no peptide) of 39.5% and a percent of beads that move after pre-injection of soluble APP-C peptide of 10.3%.

As for “C99: recombinant C-terminal 99 amino acids of human APP with mRFP, full cytoplasmic domain; 3,000 copies per 100 nm bead”, the “percent of beads that move, with peptide” value in the experiment on giant axon of the squid (axon pre-injected with soluble APP-C peptide, average of 3 100-frame videos) was determined as 10.3%+/−4.4. For the same molecule, in the experiment on giant axon of the squid, the “Max. Velocity” value was 1.46 μm/s; the “Ave. Velocity (instantaneous)” value is 0.66+/−0.08 μm/s and 0.66 +/− 0.08 (194) μm/s; the “transport behaviour of conjugated beads in the axon (in words)” value was “both types of beads were transported”. In the experiment on giant axon of the squid (without peptide, moving = translocated >3 consecutive frames, average of 3 100-frame videos, within 500 μm of injection site), the “percent of beads that move” value is recorded as 39.5%+/−4.5.

Consider “FVE YTC PTE DIY LE (FVEYTCPTEDIYLE) [JIP-1]”, for which, in the experiment on giant squid axon, the “transport of JIP beads in the axon (in words)” value is “a stream of beads can be seen heading towards the synapse”. In addition, the “pull-down of kinesin 3 (Kif1a) from brain extract” value in the experiment with kinesin 3 (Kif1a) is on record as “preferentially pulls down kinesin 3 (Kif1a)”. Also, in the experiment on giant axon, the “average velocity faster than APP or negative charge beads” value is 20% and the “speed relative to negative charge beads (in words)” value was “almost twice as fast”. The molecule also yielded a Max velocity with giant axon (beads in the giant axon) of 0.96 μm/sec. Further, the Ave velocity in the experiment on giant axon (instantaneous velocity of beads in the axon, only beads moving into and out of the frame) is reported as 0.5 +/− 0.01 μm/sec.

“GEPYFEMNYNTKFQQ (listed as Homo sapiens) [APP-C^j, reference compound]”: in the experiment with giant axon of the squid, the “beads leaving the injection site per minute” value is “None”.

Turning to “GYENPTYKFFEQMQN (listed as Homo sapiens) [APP-C, tested conjugated to beads or as soluble peptide]”, in the experiment with giant axon of the squid, the “Max. Velocity” value is 0.9 μm/s and the “Ave. Velocity (instantaneous)” value is 0.41 +/− 0.07 (227) μm/s. The “pull-down of kinesin 1 heavy chain from brain extract” value in the experiment with kinesin 1 heavy chain is “preferentially bind to kinesin 1 heavy chain”.

Take “GYENPTYKYFE-MQN (GYENPTYKYFEMQN; listed as Loligo pealei) [APP-C (squid)]”: in the experiment with giant axon of the squid, the “Max. Velocity” value is recorded as 0.9 μm/s and the “Ave. Velocity (instantaneous)” value was 0.53 +/− 0.09 (54) μm/s.

Turning to “HMNCQNGKWDSDPSGTKTCI (listed as Homo sapiens) [APP-N, reference compound]”, in the experiment with giant axon of the squid, the “beads leaving the injection site per minute” value is reported as ~0.001 ×10^3 per minute and the “transport behaviour of conjugated beads in the axon (in words)” value is “remained stationary at the injection site”.

GYENPTYKFFEQMQN: in experiment [2], the percent of beads that move (squid giant axon, no peptide) was 36% and the percent of beads that move after pre-injection of soluble APP-C peptide came to 0%.
